{"source": "patent US9968541B2", "about": "“Optical treatment methods” (ON Light Sciences Inc., priority 2011, dated 2018)", "key": {"[1]": {"details": "cited from earlier work"}, "[2]": {"details": "as described by Tsai; cited from earlier work"}, "[3]": {"system": "cavitation-induced whitening immediately after laser treatment of tattoos", "experiment": "Pilot study: topical perfluorodecalin by cotton swab prior to each laser pass in tattoo removal", "format": "in vivo, patients", "experimental": "Results of a pilot study related to the disclosure will be first released publicly in April 2012. The pilot study included tattoo removal with repeated laser exposures in one session, in which the need for 20-minute treatment intervals was eliminated. The pilot study was conducted at the Laser & Skin Surgery Center of New York (New York, N.Y.), under the direction of Roy G. Geronemus MD. […] A treatment delay of twenty minutes for resolution of whitening limited practicality of the technique, requiring up to eighty minutes of treatment time per visit. Medical grade, sterile perfluorodecalin, an inert, non-toxic liquid fluorocarbon with properties including optical clarity and gas-carrying capacity, was evaluated in the pilot study in an effort to speed resolution of cavitation-induced whitening immediately after laser treatment of tattoos. Perfluorodecalin may increase the optical penetration of lasers. The pilot study was performed in consenting patients with unwanted tattoos. Each tattoo was treated in whole or part with topical perfluorodecalin by cotton swab prior to each laser pass. Lasers and settings were selected by a dermatologist. During and after treatments, extent and duration of whitening reaction was assessed as well as appearance of adverse effects, including pigmentary change or scarring. […] In fifteen tattoos, perfluorodecalin was applied prior to each laser pass and the tattoo was treated with three Q-switched ruby laser passes immediately following one another in a single session. In five tattoos, a portion was treated with perfluorodecalin prior to a single pass of Q-switched ruby or Nd:YAG laser. […] After each laser pass, the whitening reaction resolved within five seconds of perfluorodecalin application. All treatments were well-tolerated with local anesthesia."}}, "note": "“Also recorded” adds a separate entry of the source."}
{"smiles": "FC1(F)C(F)(F)C(F)(F)C2(F)C(F)(F)C(F)(F)C(F)(F)C(F)(F)C2(F)C1(F)F", "note": "(stereo not drawn) [perfluorodecalin]", "values": [{"measurement": "solubility in water", "setting": "[1]; as described by Tsai", "value": "very low solubility in water"}, {"measurement": "thermal stability (stable up to)", "setting": "[1]; generally regarded", "value": "about 400 °C"}, {"measurement": "toxicity", "setting": "[2]", "value": "non-toxic"}, {"measurement": "time for whitening reaction to resolve after perfluorodecalin application", "setting": "[3]; after each laser pass, Q-switched ruby or Nd:YAG laser, topical by cotton swab, patients' tattoos", "value": "five"}, {"measurement": "adverse effects (including pigmentary change or scarring)", "setting": "[3]; follow-up at 3-6 weeks", "value": "no adverse effects occurred"}, {"measurement": "healing (amount of blistering, crusting or other changes) compared with previous treatments", "setting": "[3]; subject-reported", "value": "normal to improved healing"}, {"measurement": "resolution of post-laser whitening", "setting": "[3]; topical application with cotton swab, laser therapy of tattoos", "value": "effectively resolve whitening in laser therapy within seconds; also recorded: resolves post-laser whitening within seconds"}, {"measurement": "treatment time for multiple passes in a single session", "setting": "[3]; up to four passes in a single session, compared to about 80 minutes with R20", "value": "about 5 minutes"}, {"measurement": "tolerability of treatments", "setting": "[3]; with local anesthesia, perfluorodecalin prior to each laser pass", "value": "well-tolerated"}]}
